Assay results taken from ChEMBL document CHEMBL4392874, “Inhibitory Effects of Phenylpropanoid Derivatives from Oenanthe javanica on Antigen-Stimulated Degranulation in RBL-2H3 Cells” (J Nat Prod, 2019).

Experiments:
HeLa = assay: Cytotoxicity against human HeLa cells assessed as reduction in cell viability at 12.5 to 100 ug/ml measured after 12 hrs by crystal violet staining based assay
RBL-2H3 [1] = assay: Antiallergic activity in […]-stimulated rat RBL2H3 cells assessed as inhibition of anti-DNP-IgE-mediated degranulation by measuring decrease in beta-hexosaminidase activity preincubated for 20 mins followed by DNP-BSA stimulation; assay type: functional, cell-based
RBL-2H3 [2] = assay: Antiallergic activity in rat RBL2H3 cells assessed as inhibition of A23187-induced beta hexosaminidase release after 1 hr by para-nitrophenyl-N-acetyl-beta-d-glucosaminide substrate based assay; assay type: functional, cell-based
RBL-2H3 [3] = assay: Antiallergic activity in rat RBL2H3 cells assessed as inhibition of A23187/PMA-induced beta hexosaminidase release after 1 hr by para-nitrophenyl-N-acetyl-beta-d-glucosaminide substrate based assay; assay type: functional, cell-based
RBL-2H3 [4] = assay: Cytotoxicity against rat RBL2H3 cells assessed as reduction in cell viability at 6.3 to 50 ug/ml measured after 3 hrs by CCK8 assay; assay type: cell-based; conditions: rbl-2h3, 3 h

Structure (SMILES)	Activity (HeLa)	inhibition (RBL-2H3 [1])	inhibition (RBL-2H3 [2])	inhibition (RBL-2H3 [3])	Activity (RBL-2H3 [4])
COc1cc(-c2oc3cc(O)cc(O)c3c(=O)c2O)ccc1O [ISORHAMNETIN]	Non-Toxic				
O=C(/C=C/c1ccc(O)c(O)c1)O[C@H]1[C@@H](C(=O)O)OC(C(=O)O)=C[C@H]1OC(=O)/C=C/c1ccc(O)c(O)c1	Non-Toxic	Dose-dependent effect	Dose-dependent effect	Dose-dependent effect	Non-Toxic
O=C1O[C@H](c2ccc(O)cc2)[C@@H](C(=O)O)/C1=C\c1ccc(O)cc1	Non-Toxic	Dose-dependent effect	Dose-dependent effect	Dose-dependent effect	Non-Toxic
O=c1c(O)c(-c2ccc(O)c(O)c2)oc2cc(O)cc(O)c12 [QUERCETIN]	Toxic				
O=C(O)C(=Cc1ccc(O)cc1)/C=C/c1ccc(O)cc1 (mixture of isomers)	Non-Toxic	Dose-dependent effect	Dose-dependent effect	Dose-dependent effect	Non-Toxic
